Measured values as given in DBAASP.
In brackets after ≈: the same amount, converted by molar mass.

Tests used:
Assay in all cases: ≥ marks a high value that may be exact or a test limit, other limits are often not marked, values filed in µg/mL are converted to µM
[1] = test system: Escherichia coli NEB5alpha
[2] = test system: Bacillus subtilis ATCC 6051
[3] = test system: Escherichia coli ATCC 25922
[4] = test system: Streptococcus mutans ATCC 25175
[5] = test system: Staphylococcus aureus ATCC 12600
[6] = test system: Pseudomonas aeruginosa ATCC 27853
[7] = test system: Salmonella enterica subsp. enterica serovar Typhimurium C77-31
[8] = test system: Escherichia coli UB1005
[9] = test system: Enterococcus faecalis ATCC 29212
[10] = test system: Streptococcus agalactiae
[11] = test system: Staphylococcus epidermidis ATCC 12228
[12] = test system: Salmonella enterica subsp. enterica serovar Pullorum C79-13
[13] = test system: Staphylococcus aureus ATCC 43300
[14] = test system: Staphylococcus aureus ATCC 29213
[15] = test system: Salmonella enterica subsp. enterica serovar Choleraesuis CVCC 503
[16] = test system: Staphylococcus aureus
[17] = test system: Salmonella enterica subsp. enterica serovar Typhimurium ATCC 14028
[18] = test system: Candida parapsilosis
[19] = test system: Bacillus subtilis DELTA
[20] = test system: Escherichia coli DH5alpha
[21] = test system: Zymomonas mobilis ATCC 10988
[22] = test system: Pseudomonas aeruginosa PAO1
[23] = test system: Streptococcus pyogenes M1T1 5448
[24] = test system: Escherichia coli BL21
[25] = test system: Escherichia coli K99
[26] = test system: Escherichia coli 078
[27] = test system: Staphylococcus aureus ATCC 25923
[28] = test system: Bacillus subtilis CMCC 63501
[29] = test system: Escherichia coli K88

CC[C@H](C)[C@H](NC(=O)[C@H](C)NC(=O)[C@H](C)NC(=O)[C@H](CCCN=C(N)N)NC(=O)[C@H](CC(=O)O)NC(=O)[C@H](CC(N)=O)NC(=O)[C@@H](NC(=O)[C@@H](N)CCCCN)[C@@H](C)O)C(=O)NCC(=O)N[C@@H](CCCCN)C(=O)N[C@@H](CC(C)C)C(=O)N[C@H](C(=O)NCC(=O)N[C@@H](C)C(=O)N[C@H](C(=O)N[C@@H](CO)C(=O)N[C@@H](CO)C(=O)N[C@@H](CC(C)C)C(=O)O)[C@@H](C)O)C(C)C [KTNDRAAIGKLVGATSSL]
MIC [1]: ≥ 1000 µM

CC[C@H](C)[C@H](NC(=O)[C@H](C)NC(=O)CNC(=O)[C@H](CCCCN)NC(=O)[C@H](CCC(=O)O)NC(=O)[C@H](CCC(=O)O)NC(=O)[C@H](CC(=O)O)NC(=O)[C@H](CCC(=O)O)NC(=O)[C@H](CC(N)=O)NC(=O)[C@H](CCCN=C(N)N)NC(=O)CNC(=O)[C@H](CCC(N)=O)NC(=O)[C@H](CC(C)C)NC(=O)[C@@H](N)CCCCN)C(=O)N[C@H](C(=O)N[C@@H](CCCCN)C(=O)N[C@H](C(=O)N[C@@H](CCCCN)C(=O)O)C(C)C)C(C)C [KLQGRNEDEEKGAIVKVK]
MIC [1]: ≥ 1000 µM
MIC [2]: ≥ 1000 µM

CC[C@H](C)[C@H](NC(=O)[C@H](C)NC(=O)CNC(=O)[C@H](Cc1ccccc1)NC(=O)[C@H](CC(C)C)NC(=O)CN)C(=O)N[C@@H](C)C(=O)NCC(=O)N[C@@H](Cc1ccccc1)C(=O)N[C@H](C(=O)N[C@@H](CCCCN)C(=O)NCC(=O)NCC(=O)N[C@@H](Cc1c[nH]c2ccccc12)C(=O)N1CCC[C@H]1C(=O)NCC(=O)N[C@@H](CC(C)C)C(=O)N[C@H](C(=O)N[C@@H](CCCCN)C(=O)NCC(N)=O)C(C)C)[C@@H](C)CC [GLFGAIAGFIKGGWPGLVKG]
MIC [3]: 16 µM (≈ 31.1 µg/mL)
MIC [4]: 11.3 µM (≈ 22 µg/mL)
MIC [5]: 16 µM (≈ 31.1 µg/mL)
MIC [6]: > 64.3 µM

CC[C@H](C)[C@H](N)C(=O)N[C@H](C(=O)N[C@@H](CS)C(=O)N[C@@H](CCCN=C(N)N)C(=O)N[C@@H](CCCCN)C(=O)N1CCC[C@H]1C(=O)N[C@H](C(=O)N[C@H](C(=O)N[C@@H](CS)C(=O)N[C@@H](CCCN=C(N)N)C(=O)N[C@@H](CCCCN)C(=O)N1CCC[C@H]1C(=O)N[C@H](C(=O)N[C@H](C(N)=O)[C@@H](C)CC)[C@@H](C)CC)[C@@H](C)CC)[C@@H](C)CC)[C@@H](C)CC [IICRKPIICRKPII]
MIC [7]: ≥ 32 µM
MIC [8]: 16 µM (≈ 26.6 µg/mL)
MIC [9]: > 64 µM
MIC [3]: 16 µM (≈ 26.6 µg/mL)
MIC [10]: ≥ 64 µM
MIC [11]: > 64 µM
MIC [12]: ≥ 64 µM
MIC [13]: > 64 µM
MIC [14]: > 64 µM
MIC [15]: ≥ 64 µM
MIC [16]: > 64 µM
MIC [17]: 32 µM (≈ 53.3 µg/mL)

CC[C@H](C)[C@H](NC(=O)[C@H](CCCCN)NC(=O)[C@H](CC(C)C)NC(=O)[C@H](CC(C)C)NC(=O)CN)C(=O)N[C@H](C(=O)N[C@@H](CCCCN)C(=O)N[C@@H](CCCN=C(N)N)C(=O)N[C@@H](CC(C)C)C(=O)N[C@@H](CC(C)C)C(N)=O)[C@@H](C)CC [GLLKIIKRLL]
MIC [18]: 12.9 µM (≈ 15 µg/mL)
MIC [19]: 8.57 µM (≈ 9.99 µg/mL)
MIC [20]: ≥ 171 µM
MIC [21]: 4.29 µM (≈ 5 µg/mL)
MIC [22]: 2.57 µM (≈ 3 µg/mL)

CC(C)[C@H](N)C(=O)N[C@@H](CS)C(=O)N[C@@H](CCCN=C(N)N)C(=O)N[C@@H](CCCCN)C(=O)N1CCC[C@H]1C(=O)N[C@H](C(=O)N[C@H](C(=O)N[C@@H](CS)C(=O)N[C@@H](CCCN=C(N)N)C(=O)N[C@@H](CCCCN)C(=O)N1CCC[C@H]1C(=O)N[C@H](C(N)=O)C(C)C)C(C)C)C(C)C [VCRKPVVCRKPV]
MIC [7]: ≥ 64 µM
MIC [8]: ≥ 64 µM
MIC [9]: > 64 µM
MIC [3]: > 64 µM
MIC [10]: ≥ 64 µM
MIC [11]: > 64 µM
MIC [12]: ≥ 64 µM
MIC [13]: > 64 µM
MIC [14]: > 64 µM
MIC [15]: ≥ 64 µM
MIC [16]: > 64 µM
MIC [17]: > 64 µM

CC[C@H](C)[C@H](NC(=O)[C@H](Cc1ccccc1)NC(=O)[C@H](CCCCN)NC(=O)[C@H](CC(C)C)NC(=O)[C@H](CC(C)C)NC(=O)CN)C(=O)N[C@@H](CCCCN)C(=O)N[C@@H](CCCN=C(N)N)C(=O)N[C@@H](CC(C)C)C(=O)N[C@@H](CC(C)C)C(N)=O [GLLKFIKRLL]
MIC [18]: 8.33 µM (≈ 9.99 µg/mL)
MIC [19]: ≥ 167 µM
MIC [20]: ≥ 167 µM
MIC [21]: 4.16 µM (≈ 5 µg/mL)
MIC [22]: 2.5 µM (≈ 3 µg/mL)

CC[C@H](C)[C@H](NC(=O)[C@H](CCCCN)NC(=O)[C@H](CCCCN)NC(=O)[C@H](CCCCN)NC(=O)[C@H](CC(C)C)NC(=O)[C@H](CCCN=C(N)N)NC(=O)[C@H](CCC(N)=O)NC(=O)[C@H](Cc1ccccc1)NC(=O)[C@@H](NC(=O)[C@@H](NC(=O)[C@H](CCC(=O)O)NC(=O)[C@H](CCCCN)NC(=O)CNC(=O)[C@H](C)N)[C@@H](C)O)[C@@H](C)CC)C(=O)N[C@@H](CCC(N)=O)C(=O)N[C@@H](CCC(=O)O)C(=O)N[C@@H](CCCCN)C(=O)NCC(=O)N[C@@H](CCCCN)C(=O)N[C@@H](CCCN=C(N)N)C(=O)N[C@@H](C)C(=O)N[C@H](C(=O)N[C@H](C(=O)N[C@@H](Cc1c[nH]c2ccccc12)C(=O)N[C@@H](Cc1c[nH]c2ccccc12)C(=O)O)[C@@H](C)CC)[C@@H](C)O [AGKETIFQRLKKKIQEKGKRATIWW]
MIC [23]: 0.25 µM (≈ 0.761 µg/mL)
MIC [24]: 4 µM (≈ 12.2 µg/mL)
MIC [22]: 16 µM (≈ 48.7 µg/mL)

CC[C@H](C)[C@H](NC(=O)[C@H](Cc1c[nH]c2ccccc12)NC(=O)[C@H](CCCCN)NC(=O)[C@H](CC(C)C)NC(=O)[C@@H](NC(=O)[C@H](Cc1c[nH]c2ccccc12)NC(=O)CNC(=O)[C@@H](NC(=O)[C@H](CCCCN)NC(=O)[C@H](Cc1c[nH]c2ccccc12)NC(=O)[C@H](CC(C)C)NC(=O)[C@@H](N)CCCN=C(N)N)[C@@H](C)CC)C(C)C)C(N)=O [RLWKIGWVLKWI]
MIC [7]: 16 µM (≈ 25.6 µg/mL)
MIC [8]: 16 µM (≈ 25.6 µg/mL)
MIC [25]: 4 µM (≈ 6.39 µg/mL)
MIC [9]: 4 µM (≈ 6.39 µg/mL)
MIC [26]: 4 µM (≈ 6.39 µg/mL)
MIC [27]: 16 µM (≈ 25.6 µg/mL)
MIC [3]: 16 µM (≈ 25.6 µg/mL)
MIC [28]: 2 µM (≈ 3.19 µg/mL)
MIC [11]: 16 µM (≈ 25.6 µg/mL)
MIC [12]: 2 µM (≈ 3.19 µg/mL)
MIC [29]: 2 µM (≈ 3.19 µg/mL)
MIC [14]: 8 µM (≈ 12.8 µg/mL)
MIC [17]: 8 µM (≈ 12.8 µg/mL)

CC[C@H](C)[C@H](NC(=O)[C@H](Cc1ccccc1)NC(=O)[C@H](C)NC(=O)[C@H](CCCCN)NC(=O)[C@H](CCCCN)NC(=O)[C@H](Cc1c[nH]c2ccccc12)NC(=O)[C@H](CCCN=C(N)N)NC(=O)[C@H](CCCCN)NC(=O)[C@H](CCCN=C(N)N)NC(=O)[C@H](CC(C)C)NC(=O)[C@H](CCC(=O)O)NC(=O)[C@H](CCC(=O)O)NC(=O)[C@H](CC(C)C)NC(=O)[C@H](CC(C)C)NC(=O)[C@H](Cc1ccc(O)cc1)NC(=O)[C@H](CCCCN)NC(=O)[C@@H](NC(=O)[C@H](CC(C)C)NC(=O)[C@H](C)NC(=O)[C@H](CCC(N)=O)NC(=O)[C@H](CCCN=C(N)N)NC(=O)CNC(=O)[C@H](C)N)[C@@H](C)O)C(=O)N[C@@H](C)C(=O)N[C@@H](Cc1c[nH]c2ccccc12)C(=O)O [AGRQALTKYLLEELRKRWKKAFIAW]
MIC [23]: 2 µM (≈ 6.15 µg/mL)
MIC [24]: 1 µM (≈ 3.08 µg/mL)
MIC [22]: 64 µM (≈ 197 µg/mL)
